For orientation: MTD means the largest dose that counted as tolerated. By IC50 is commonly meant the midpoint of a concentration-inhibition curve.

The test system of one series is human PC-3 cells. The settings on record: for Deaths / T/C: 2 administrations per day; for T/C: final tumour weight; for tolerability (good: body weight change <=minus 10% and 100% survival): administration 2 times per day. The protocol:
Xenograft models in immunosuppressed mice were used to determine the antitumour activity in living organisms.
Use was made primarily of a prostate carcinoma model with hormone-independent human PC-3 cells in male nude mice (NMRI-nude (nu/nu) mice, Taconic M&B A/S). To this end, 3 million tumour cells (suspended in medium+Matrigel 1:1, final 0.1 ml) were injected subcutaneously into the side of each animal. When the tumours extended to an area of 20-30 mm^2, the mice were randomized into therapy groups and therapy was initiated. […] At this point in time, the experiment was terminated in all groups and the prepared tumours were weighed.
The T/C value was calculated as primary success parameter using the effect on the final tumour weight: mean tumour weight in the treatment group divided by mean of the tumour weight in the vehicle group.
(§1) Administration route: oral
Vehicle: PEG400/ethanol/Solutol HS 15 (70/5/25, v/v/v)
Administration volume: 10 ml/kg
Number of mice: see Table 8

Series [1] is described as follows: Pharmacokinetic parameters in the rat (i.v. and intragastric). Type of series: in vivo. The settings on record: for clearance / Vd / half-life: male, plasma; for clearance: read-out: CLplasma (converted); for Vd: read-out: Vss; for half-life: terminal, read-out: t½ (converted); for F: oral bioavailability. As to the method: Determination of the Pharmacokinetic Parameters of a Test Substance in the Rat and in the Dog For this, the test substances were applied in dissolved form both for intravenous, and for intragastric application, wherein compatible solubilizers such as PEG400 and/or ethanol were used in a compatible amount. […] Administration was as a bolus injection in the male rat and as an infusion in the female dog (15 min) At various time points after the bolus injection, and before and after the 15-minute infusion, blood samples of about 100-150 μl were removed via a catheter either from the jugular vein (rat) or from the saphenous vein (dog). Lithium-heparin was added as anticoagulant to the blood samples and they were stored in a refrigerator until required for further processing. After centrifugation of the samples for 15 min at 3000 rpm, an aliquot of 100 μl was taken from the supernatant (plasma) and was precipitated by adding 400 μl of cold ACN or methanol (absolute). The precipitated samples were frozen-out at […] overnight, then centrifuged again at 3000 rpm for 15 min, before 150 μl of the clear supernatant were removed to determine the concentration. The analysis was effected by means of an Agilent 1200 HPLC system with connected LCMS/MS detection. Calculation of the PK parameters (using PK calculation software, e.g. WinNonLin®): CLplasma: total plasma clearance of the test substance (in 1*kg/h); CLblood: total blood clearance of the test substance (in 1*kg/h), where (CLblood=CLplasma*Cp/Cb); Vss: apparent steady-state distribution volume (in 1/kg); t½: half-life within a specified interval (here: terminal t½, in h); AUCnorm: area under the plasma concentration time profile from time point zero extrapolated to infinity divided by the dose normalized for body weight (in kg*l/h); AUC(0-tn)norm: integrated area under the plasma concentration time profile from time point zero until the last time point at which a plasma concentration was measurable, divided by the dose normalized for body weight (in kg*l/h); Cmax: maximum concentration of the test substance in the plasma (in μg/l); Cmax,norm: maximum concentration of the test substance in the plasma divided by the dose normalized for body weight (in kg/l); Cb/Cp: ratio of the blood to plasma concentration distribution. […] At various time points after administration, blood samples of about 100-150 μl were removed via a catheter either from the jugular vein (rat) or from the saphenous vein (dog). Lithium-heparin was added as anticoagulant to the blood samples and they were stored in a refrigerator until required for further processing. After centrifugation of the samples for 15 min at 3000 rpm, an aliquot of 100 μl was taken from the supernatant (plasma) and was precipitated by adding 400 μl of cold ACN or methanol (absolute). The precipitated samples were frozen-out at −20° C. overnight, then centrifuged at 3000 rpm for 15 min, before 150 μl of the clear supernatant were removed to determine the concentration. The analysis was effected by means of an Agilent 1200 HPLC system with connected LCMS/MS detection. […]

A short description of series [2]: Effective AUC from plasma concentration time profile in the PC3 tumour model. It counts as in vivo, mouse. Conditions: nu/nu, plasma, oral, read-out: ther. AUC (mouse). The protocol:
(§2) The human pharmacokinetic (PK) parameters (Table 9) were predicted based on the in vivo PK parameters obtained for rats (single species scaling), taking into account the interspecies differences in the free fraction (fu) in the plasma. The effective AUC (area under curve) was determined based on the measured plasma concentration time profile for in vivo efficacy in the PC3 tumour model of the mouse (nu/nu mouse).

Series [3] is described as follows: Maximum tolerated dose (MTD) in female nude mice. Type of series: in vivo, mouse. The settings on record: for Deaths: 21 days; for MTD at 21 days: female, NMRI-nude (nu/nu), mouse, in vivo, administration once per day. The protocol:
To this end, initially the maximum tolerable dose (MTD) was determined using the following protocol:
The MTD was defined as the highest dose which could be administered without any animal dying during the treatment phase, and without any body weight loss of more than 10% compared to the initial weight.
as §1
• (Solutol HS15: polyoxyethylene ester of 12-hydroxystearic acid) Administration volume: 10 ml/kg: Protocol: see Table 7
The treatment phase was followed by an observation phase of 21 days.

The nature of series [4]: Prediction of human pharmacokinetic parameters and human therapeutic dosage (single species scaling from rat). Conditions: human, plasma; for AUC: read-out: calc. AUC (human); for clearance: predicted (fu-corrected) from rat PK, read-out: pred. CL (human) (converted). The protocol:
as §2, with “mouse). The therapeutic human dosage was determined using the predicted human clearance (CL), assuming 100% bioavailability (F=1) and using the effective AUC in the animal model according to the formula below: […]” for “mouse).”

Series [5] has as its system human ACC1. Put plainly: Human ACC1 enzyme assay (ADP-Glo). The settings on record: for Ratio IC50s ACC2/ACC1 (respective measurement): pairwise, same dilution series. It counts as biochemical. As to the method: (§3) Typical concentrations were in the range of 1.75 μl.
The target in series [6] is human ACC1 (Homo sapiens, UniProt Q13085). Briefly: Human ACC1 enzyme assay (ADP-Glo). It counts as biochemical. The settings on record: individual measurement (measurement no./preparation no. in table); read-out: ACC 1 IC50. As to the method:
as §3
Background: ADP-Glo first removes unused ATP, then detects ADP through luciferase.

In another series the target is human ACC2 (Homo sapiens (Human), UniProt O00763). Put plainly: Human ACC2 enzyme assay (ADP-Glo). Conditions: read-out: ACC 2 IC50; individual measurement (measurement no./preparation no. in table).
Setting [7] is: dosage (mouse) 80 mg/kg 2 × per day.
Where [8] appears, read: 100 mg/kg oral, 1 administration per day.
Where [9] appears, read: from mouse dosage 80 mg/kg 2 × per day.

Values joined by “and” are separate entries in the source; they are usually repeats but may differ in a detail not shown here. Equal values may be shown once. Read-outs that look alike come from different tables or passages of the source.

Sequence of human ACC2 (O00763 27-2458 limits assumed): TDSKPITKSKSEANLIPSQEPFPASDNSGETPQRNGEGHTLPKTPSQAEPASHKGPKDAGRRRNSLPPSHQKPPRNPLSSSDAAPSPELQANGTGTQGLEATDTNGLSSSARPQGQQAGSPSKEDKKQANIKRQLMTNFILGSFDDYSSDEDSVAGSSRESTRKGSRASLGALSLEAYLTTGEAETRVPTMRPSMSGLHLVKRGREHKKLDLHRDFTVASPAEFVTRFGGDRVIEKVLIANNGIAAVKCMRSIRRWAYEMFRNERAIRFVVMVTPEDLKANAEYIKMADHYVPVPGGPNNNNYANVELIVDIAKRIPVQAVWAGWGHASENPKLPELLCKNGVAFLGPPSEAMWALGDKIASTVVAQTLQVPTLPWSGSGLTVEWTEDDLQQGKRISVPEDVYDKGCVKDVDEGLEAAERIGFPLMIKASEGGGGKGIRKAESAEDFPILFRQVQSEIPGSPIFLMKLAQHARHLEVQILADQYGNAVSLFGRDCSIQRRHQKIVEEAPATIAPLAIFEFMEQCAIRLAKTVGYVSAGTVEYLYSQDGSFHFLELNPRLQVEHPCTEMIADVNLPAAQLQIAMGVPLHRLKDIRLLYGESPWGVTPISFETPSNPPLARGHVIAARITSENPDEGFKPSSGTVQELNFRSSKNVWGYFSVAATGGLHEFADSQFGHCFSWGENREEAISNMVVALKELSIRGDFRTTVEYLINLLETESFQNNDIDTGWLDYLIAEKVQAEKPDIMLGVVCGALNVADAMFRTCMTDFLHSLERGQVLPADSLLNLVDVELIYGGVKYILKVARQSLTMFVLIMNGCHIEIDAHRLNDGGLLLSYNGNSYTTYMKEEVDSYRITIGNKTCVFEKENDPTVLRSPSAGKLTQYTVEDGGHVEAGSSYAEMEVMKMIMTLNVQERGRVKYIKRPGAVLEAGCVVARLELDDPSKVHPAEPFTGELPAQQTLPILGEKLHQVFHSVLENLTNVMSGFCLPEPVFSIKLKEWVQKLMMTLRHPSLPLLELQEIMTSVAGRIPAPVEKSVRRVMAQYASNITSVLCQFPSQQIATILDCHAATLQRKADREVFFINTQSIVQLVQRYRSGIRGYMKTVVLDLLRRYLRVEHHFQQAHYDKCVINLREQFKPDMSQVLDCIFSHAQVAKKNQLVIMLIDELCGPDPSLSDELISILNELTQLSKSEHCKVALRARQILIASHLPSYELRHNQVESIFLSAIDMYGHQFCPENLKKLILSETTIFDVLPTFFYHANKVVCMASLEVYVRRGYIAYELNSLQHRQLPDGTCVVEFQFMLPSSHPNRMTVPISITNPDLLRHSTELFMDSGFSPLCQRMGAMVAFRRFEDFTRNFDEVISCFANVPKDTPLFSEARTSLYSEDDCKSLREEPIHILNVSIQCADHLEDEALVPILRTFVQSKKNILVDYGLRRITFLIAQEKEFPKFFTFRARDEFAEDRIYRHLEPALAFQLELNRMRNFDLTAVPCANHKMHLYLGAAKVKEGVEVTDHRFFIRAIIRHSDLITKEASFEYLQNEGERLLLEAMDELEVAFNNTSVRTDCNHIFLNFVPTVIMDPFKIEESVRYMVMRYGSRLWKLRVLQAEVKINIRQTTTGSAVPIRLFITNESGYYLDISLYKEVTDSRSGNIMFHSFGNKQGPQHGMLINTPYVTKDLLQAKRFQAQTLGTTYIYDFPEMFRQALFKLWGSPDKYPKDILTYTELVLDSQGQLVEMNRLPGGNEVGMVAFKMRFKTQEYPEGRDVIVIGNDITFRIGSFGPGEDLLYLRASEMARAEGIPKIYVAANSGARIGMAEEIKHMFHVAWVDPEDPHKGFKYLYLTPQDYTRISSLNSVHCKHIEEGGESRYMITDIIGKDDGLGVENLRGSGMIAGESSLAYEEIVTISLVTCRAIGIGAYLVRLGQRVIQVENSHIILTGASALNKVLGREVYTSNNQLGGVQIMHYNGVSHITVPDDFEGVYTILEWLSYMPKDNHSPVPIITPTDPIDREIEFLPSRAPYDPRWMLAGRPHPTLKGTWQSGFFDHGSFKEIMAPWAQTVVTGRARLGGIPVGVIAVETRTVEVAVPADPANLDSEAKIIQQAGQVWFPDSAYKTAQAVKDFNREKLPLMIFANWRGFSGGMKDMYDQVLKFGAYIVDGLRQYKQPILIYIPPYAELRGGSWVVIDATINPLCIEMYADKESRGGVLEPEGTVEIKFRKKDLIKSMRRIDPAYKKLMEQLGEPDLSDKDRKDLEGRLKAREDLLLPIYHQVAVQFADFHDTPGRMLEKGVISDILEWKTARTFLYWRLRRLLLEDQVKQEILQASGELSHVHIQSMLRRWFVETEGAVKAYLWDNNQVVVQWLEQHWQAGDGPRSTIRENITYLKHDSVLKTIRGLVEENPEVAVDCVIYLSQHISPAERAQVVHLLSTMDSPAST

As for `CO[C@]1(C(F)(F)F)CC[C@]2(CC1)NC(=O)C(c1cc(-c3ccc(Cl)cc3)ccc1C)=C2O` [Example 1-1, (5r,8r)-3-(4′-Chloro-4-methylbiphenyl-3-yl)-4-hydroxy-8-methoxy-8-(trifluoromethyl)-1-azaspiro[4.5]dec-3-en-2-one], the Deaths in the series with human PC-3 cells (80 mg/kg oral, 15 days) is 0 of 10; in series [3] (12.5 mg/kg oral, 1 administration per day) it was 0 of 4; in series [3] (25 mg/kg oral, 1 administration per day), 0 of 4; in series [3] (50 mg/kg oral, 1 administration per day) it was 1 of 4; in series [3] (75 mg/kg oral, 1 administration per day), 0 of 4; in series [3] (setting [8]), 0 of 4. This compound also yielded a T/C in the series with human PC-3 cells (80 mg/kg oral, 15 days) of 0.34. The “tolerability (good: body weight change <=minus 10% and 100% survival)” value in the series with human PC-3 cells (80 mg/kg) was “good tolerability”. Also, the CLblood in series [1] turned out to be 0.183 mL/min/kg. For the same compound, the clearance in series [1] (intravenous) is 0.1 mL/min/kg; in series [4], 0.0333 mL/min/kg. Also, in series [1] (intravenous), the Vd was 0.85 L/kg. Besides, the half-life in series [1] is 103 h. For the same compound, the F in series [1] stood at 163%. Further, the values for the AUC in series [2] (setting [7]) and in series [4] (setting [9]) were 289 µg·h/mL and 1160 µg·h/mL, respectively. This compound also showed an MTD at 21 days in series [3] (21-day treatment, oral) of more than 100 mg/kg.

As for `CO[C@]1(C(F)(F)F)CC[C@]2(CC1)NC(=O)C(c1cc(-c3ccc(Cl)c(F)c3)ccc1C)=C2O` [Example 1-2, (5r,8r)-3-(4′-Chloro-3′-fluoro-4-methylbiphenyl-3-yl)-4-hydroxy-8-methoxy-8-(trifluoromethyl)-1-azaspiro[4.5]dec-3-en-2-one], the Deaths is 0 of 9 in the series on human PC-3 cells (40 mg/kg oral, 17 days) and 0 of 9 in the series with human PC-3 cells (80 mg/kg oral, 17 days). Moreover, the T/C was determined as 0.44 in the series on human PC-3 cells (40 mg/kg oral, 17 days) and 0.28 in the series on human PC-3 cells (80 mg/kg oral, 17 days). Besides, the “tolerability (good: body weight change <=minus 10% and 100% survival)” value in the series with human PC-3 cells (40 mg/kg) and in the series on human PC-3 cells (80 mg/kg) was “good tolerability” throughout. This compound came in with a CLblood in series [1] of 0.65 mL/min/kg. For the same compound, the clearance was 0.483 mL/min/kg in series [1] (intravenous) and 0.15 mL/min/kg in series [4]. Besides, the Vd in series [1] (intravenous) amounted to 2.4 L/kg. Further, the half-life in series [1] is 65 h. In series [1], this compound showed an F of 131%. Further, the AUC was 66 µg·h/mL in series [2] (dosage (mouse) 40 mg/kg 2 × per day), 156 µg·h/mL in series [2] (setting [7]), 355 µg·h/mL in series [4] (from mouse dosage 40 mg/kg 2 × per day) and 842 µg·h/mL in series [4] (setting [9]).

`COC[C@]1(OC)CC[C@@]2(CC1)NC(=O)C(c1cc(-c3ccc(Cl)cc3)ccc1C)=C2O` [Example 1-3, (5r,8r)-3-(4′-Chloro-4-methylbiphenyl-3-yl)-4-hydroxy-8-methoxy-8-(methoxymethyl)-1-azaspiro[4.5]dec-3-en-2-one]: in the series on human ACC1 [5], the “Selectivity ACC1 vs. ACC2 (mean of the individual measurements ± standard deviation)” value is reported as 47.0 ± 2.1; the “Ratio IC50s ACC2/ACC1 (respective measurement)” value (from here on “Ratio IC50s ACC2/ACC1”) was 49.0 and 44.9. Also, the concentration for half-maximal inhibition (IC50) on human ACC1 [6] is 0.165 µM and 0.146 µM. For the same compound, in series [1], the CLblood was 0.083 mL/min/kg, the half-life was 79 h and the F stood at 68%. Moreover, in series [1] (iv), the clearance was 0.0333 mL/min/kg and the Vd stood at 0.29 L/kg. Besides, the concentration for half-maximal inhibition (IC50) on human ACC2 was 8.08 µM and 6.55 µM.

For `COC[C@]1(OC)CC[C@@]2(CC1)NC(=O)C(c1cc(-c3ccc(Cl)c(F)c3)ccc1C)=C2O` [Example 1-4, (5r,8r)-3-(4′-Chloro-3′-fluoro-4-methylbiphenyl-3-yl)-4-hydroxy-8-methoxy-8-(methoxymethyl)-1-azaspiro[4.5]dec-3-en-2-one], the Deaths is given as 0 of 10 in the series on human PC-3 cells (80 mg/kg oral, 17 days); 0 of 4 in series [3] (25 mg/kg oral, 2 administrations per day); 0 of 4 in series [3] (50 mg/kg oral, 2 administrations per day); 0 of 4 in series [3] (75 mg/kg oral, 2 administrations per day); 0 of 4 in series [3] (setting [8]); 0 of 4 in series [3] (100 mg/kg oral, 2 administrations per day). The T/C with human PC-3 cells (80 mg/kg oral, 17 days) turned out to be 0.29. In addition, the “tolerability (good: body weight change <=minus 10% and 100% survival)” value with human PC-3 cells (80 mg/kg) is “good tolerability”. In series [1], this compound showed a CLblood of 0.183 mL/min/kg. The values for the clearance in series [1] (intravenous) and in series [4] were 0.117 mL/min/kg and 0.05 mL/min/kg, respectively. Besides, the Vd in series [1] (intravenous) is 0.44 L/kg. In series [1], the half-life was 51 h. Further, the F in series [1] is listed as 83%. Also, the AUC in series [2] (setting [7]) is 712 µg·h/mL; in series [4] (setting [9]), 4130 µg·h/mL. For the same compound, the maximal tolerated dose (MTD) entry in series [3] (21-day treatment, administration twice per day, oral) is reported as “higher than 100 mg/kg”. The MTD at 21 days in series [3] (21-day treatment, oral) was more than 100 mg/kg.

`COC[C@H]1CC[C@]2(CC1)NC(=O)C(c1cc(-c3ccc(Cl)cc3)ccc1C)=C2O` [V.3-b, (5s,8s)-3-(4′-Chloro-4-methylbiphenyl-3-yl)-4-hydroxy-8-(methoxymethyl)-1-azaspiro[4.5]dec-3-en-2-one]: in the series with human ACC1 [5], the “Selectivity ACC1 vs. ACC2 (mean of the individual measurements ± standard deviation)” value worked out at 6.4 and the “Ratio IC50s ACC2/ACC1” value is listed as 6.4.

For the compound `COC[C@H]1CC[C@]2(CC1)NC(=O)C(c1cc(-c3ccc(Cl)c(F)c3)ccc1C)=C2O` [V.4-b, (5s,8s)-3-(4′-Chloro-3′-fluoro-4-methylbiphenyl-3-yl)-4-hydroxy-8-(methoxymethyl)-1-azaspiro[4.5]dec-3-en-2-one], in the series with human ACC1 [5], the “Selectivity ACC1 vs. ACC2 (mean of the individual measurements ± standard deviation)” value turned out to be 15.2. Also, the “Ratio IC50s ACC2/ACC1” value in the series with human ACC1 [5] came to 15.2. Besides, the IC50 amounted to 0.073 µM at human ACC1 [6] and 1.12 µM at human ACC2.
